Measured values from patent publication US20230405003A1, “APPLICATION OF THYMIDINE DERIVATIVE IN PREPARATION OF DRUGS” (ONQUALITY PHARMACEUTICALS CHINA LTD., priority 2020, published 2023).
Where two headings read alike, the source gives them in different places.

Legend:
HaCaT cells = experiment: Relief of 5-FU proliferative toxicity to HaCaT cells (CCK-8 cell survival); assay type: cell-based; details: for activation at 1 µM: compound 1 μM; for activation at 10 µM: compound 10 μM; for activation at 100 µM: compound 100 μM; for activation at 1000 µM: compound 1000 μM; for activation at 200 µM: compound 200 μM; for Cell Survival Rate (increased percentage of cell survival compared with the Group of 5-FU): 5-Fu 20 μM, HaCaT cells
Method: The cultured skin cell HaCaTs were digested, counted, and inoculated into a 96-well plate with 5000-10000 cells in each well. After 24 h of culture, the wells were divided into Group of blank solvent control, Group of 5-FU, Group of 5-FU+thymidine derivative, Group of 5-FU+the combination of thymidine derivative and uridine derivative. […] adding a solution of 5-FU and a solution of thymidine derivative (the final concentrations of 5-FU and thymidine derivative are shown in Table 3, the solution of thymidine is an aqueous solution, while the solutions of thymidine derivatives are all DMSO solutions); Group of 5-FU+the combination of thymidine derivative and uridine derivative: adding a solution of 5-FU and a mixed solution of thymidine derivative and uridine derivative (the final concentrations of the solution of 5-FU and the mixed solution of thymidine derivative+uridine derivative are shown in Table 3, the solution of thymidine is an aqueous solution, while the mixed solutions of thymidine derivative+uridine derivative are all DMSO solutions); Group of blank solvent control: adding the same type of solution as those of the corresponding Group of 5-FU or Group of 5-FU+thymidine derivative (or the mixed solution of thymidine derivative+uridine derivative) in equal volume. Group of blank solvent control was used as control to exclude the influence of the solvents in Group of 5-FU and Group of 5-FU+thymidine derivative (or the mixed solution of thymidine derivative+uridine derivative) on the results. After additional 48 hours of culture, a Cell Counting Kit-8 (CCK-8) detection kit (C0037, purchased from Shanghai Beyotime Biotechnology) is used to determine the cell survival rate, thereby calculating the proliferative toxicity of 5-Fu/5-DFUR on cells and the relieving effect of the thymidine derivative (or the mixed solution of thymidine derivative+uridine derivative) on the proliferative toxicity. Using GraphPad Prism 6.0 software, the results were statistically analyzed by t-test and plotted.
(§1) Table 3 lists the combinations of 5-FU and thymidine derivative (or the mixed solution of thymidine derivative+uridine derivative), and the corresponding experimental results (wherein the data in the column of cell survival indicate the corresponding increased percentage of the cell survivals of Group of 5-FU+thymidine derivative or Group of 5-FU+the combination of thymidine derivative and uridine derivative compared with the Group of 5-FU). FIGS. 3-10 list the experimental results of several representative compounds.
The effect of thymidine derivative or a combination of thymidine derivative and uridine derivative on relieving the proliferative toxicity of a chemotherapeutical drug (5-FU) to HaCaT cells was tested according to the method in Examples 2-29. The test thymidine derivative or the combination of thymidine derivative and uridine derivative, as well as the final concentration of the test compounds were shown in Table 7.
as §1, with “7” for “3”, “15-21” for “3-10”, “exemplary” for “representative”

[1] = test system: hand-foot syndrome caused by capecitabine in SD rats; experiment: Rat model of hand-foot syndrome caused by capecitabine, gel application; assay type: in vivo; details: capecitabine 4000 mg/kg once daily, 40 days; for Control Rate Forepaws / Control Rate Hindpaws: rats
Method: A rat animal model was established. 6-week aged female SD rats were administered with capecitabine by daily gavage. The degree of hand-foot syndrome in paws is similar, and there was no difference between the left and right paws. Similar to the human body, rats developed hand-foot syndrome after oral administration of capecitabine. The causes of the two are the same, and the disorder is also very similar. Therefore, rats are very good animal models for simulating the hand-foot syndrome caused by capecitabine.
After SD rats were fed and adapted for one week (about 200 g), the rats were divided into groups, with 10 rats in each group. Then, the rats were subject to gavage administration. Capecitabine was dissolved in a 1:1 mixed solution of castor oil and ethanol and diluted for three times with PBS buffer. After gavage, the rats were fixed with a fixed cylinder, and a gel of thymidine derivative (or a compounded gel of thymidine derivative and uridine derivative) was applied to double hind paws (about 1 cm*3 cm) of the rats in group of administration (the types and concentrations are shown in Table 4), and a blank gel was applied to the group of blank (as a blank control). After approximately 4 hours of application, the rats were released after 4 hours, wiped with clean water to remove any residual drug at the application site, and allowed back to the cage. The thymidine derivative gel (or the compounded gel of thymidine derivative and uridine derivative) was administered with gavage every day. The gavage and application tests are repeated daily until the group of blank has developed obvious hand-foot syndrome.
Table 4 lists the combinations of animal experiments of capecitabine and the thymidine derivative gel (or the compounded gel of thymidine derivative and uridine derivative) and the corresponding experimental results (wherein, the data in the column of control rate=the occurrence rate of hand-foot syndrome in group of blank—the occurrence rate of hand-foot syndrome in group of administration). […]

[2] = test system: hand-foot syndrome caused by capecitabine in Balb/c mice; experiment: Mouse model of hand-foot syndrome caused by capecitabine, gel application or oral administration; assay type: in vivo; details: Mus musculus, 192 h, capecitabine 1000 mg/kg once daily, oral 200 mpk twice per day, 8 days
Method: A mouse animal model was established. 6-week aged male Balb/c mice were administered with capecitabine by daily gavage. After a few days, mice's paws developed hand-foot syndrome symptoms (similar to the results of the rat model, such as, in FIG. 13). Similar to the human body, mice developed hand-foot syndrome in the forepaws and hind paws after oral administration of capecitabine. The causes of the two are the same, and the disorder is also very similar. Therefore, mice are very good animal models for simulating the hand-foot syndrome caused by capecitabine.
After Balb/c mice were fed and adapted for one week (about 20 g), the mice were divided into groups, with 10 mice in each group. Then, the mice were subject to gavage administration. Capecitabine was dissolved in normal saline with pH=8, and the gavage dose was not greater than 0.3 mL at each time. After gavage, the blank gel was applied to the forepaws and the hind paws (about 4*0.5 cm*0.5 cm) in group of blank gel, and gels containing different drugs were applied to the forepaws and the hind paws (about 4*0.5 cm*0.5 cm) in group of administration. After application, the mice were fixed in Elizabethan collar for 4 hours. After 4 hours, the mice were released, wiped with clean water to remove any residual drug at the application site, and allowed back to the cage. The gavage and application tests are repeated daily until the group of blank has developed obvious hand-foot syndrome. […] Additionally, the thymidine derivative and the combination of thymidine derivative and uridine derivative were orally administered for observing the relief of the hand-foot syndrome. In examples 41-48, thymidine derivative and/or uridine derivative were/was applied, and in examples 49-52, thymidine derivative and/or uridine derivative were/was administered orally.
Table 5 lists the combinations of animal experiments of capecitabine and thymidine derivative (or a combination of thymidine derivative and uridine derivative) and the corresponding experimental results (wherein the data in the column of control rate=the occurrence rate of hand-foot syndrome in group of blank—the occurrence rate of hand-foot syndrome in group of administration).
The effect of thymidine derivative or a combination of thymidine derivative and uridine derivative on a mouse model with chemotherapeutic drug (capecitabine)-induced hand-foot syndrome was tested according to the method in Examples 41-52. Wherein, the drugs were administered transdermally for Examples 119-120 and orally for Examples 121-123.
The test thymidine derivative or the combination of thymidine derivative and uridine derivative, as well as the final concentration of the test compounds were shown in Table 9. Table 9 lists the combinations of animal experiments of capecitabine and the thymidine derivative gel (or a compounded gel of thymidine derivative and uridine derivative) and the corresponding experimental results (wherein the data in the column of control rate=the occurrence rate of hand-foot syndrome in Group of blank—the occurrence rate of hand-foot syndrome in Group of administration).

[3] = Homo sapiens, HaCaT, increase vs Group of 5-FU, 5-FU 20 μM, 48 h, read-out: Cell Survival Rate

Compound: CCC(=O)OC[C@H]1O[C@@H](n2cc(C)c(=O)[nH]c2=O)C[C@@H]1OC(=O)CC [T5]
- activation at 1 µM (HaCaT cells; [3]): 18 to 24%
- activation at 10 µM (HaCaT cells; [3]): 55 to 65%
- activation at 100 µM (HaCaT cells; [3]): 77 to 84%
- activation at 500 µM (HaCaT cells; Homo sapiens, HaCaT, increase vs Group of 5-FU, 5-FU 20 μM, compound 500 μM, 48 h, read-out: Cell Survival Rate): 78 to 85%
- activation at 1000 µM (HaCaT cells; [3]): 35 to 45%
- Control Rate ([1]; SD rats, gel 2 wt% on hind paws): 30.00%

Compound: CCCC(=O)OC[C@H]1O[C@@H](n2cc(C)c(=O)[nH]c2=O)C[C@@H]1OC(=O)CCC [T6, ((2R,3S,5R)-3-(butyryloxy)-5-(5-methyl-2,4-dioxo-3,4-dihydropyrimidin-1(2H)-yl)tetrahydrofuran-2-yl)methyl Butyrate]
- activation at 1 µM (HaCaT cells; [3]): 27 to 34%
- activation at 5 µM (HaCaT cells; Homo sapiens, HaCaT, increase vs Group of 5-FU, 5-FU 20 μM, compound 5 μM, 48 h, read-out: Cell Survival Rate): 40 to 48%
- activation at 10 µM (HaCaT cells; [3]): 55 to 65%
- activation at 50 µM (HaCaT cells; Homo sapiens, HaCaT, increase vs Group of 5-FU, 5-FU 20 μM, compound 50 μM, 48 h, read-out: Cell Survival Rate): 65 to 75%
- activation at 100 µM (HaCaT cells; [3]): 68 to 75%
- activation at 200 µM (HaCaT cells; [3]): 85 to 95%
- inhibition in vivo at 200 mg/kg ([2]; read-out: Control Rate Forepaws): 65%
- inhibition in vivo at 200 mg/kg ([2]; read-out: Control Rate Hindpaws): 77.5%

Compound: Cc1ccc(Nc2c(F)cccc2Cl)c(CC(=O)OC[C@H]2O[C@@H](n3cc(C)c(=O)[nH]c3=O)C[C@@H]2O)c1 [T35]
- Cell Survival Rate (increased percentage of cell survival compared with the Group of 5-FU) (HaCaT cells; selected compound final concentration 0.8 μM): 23%-31%
- Cell Survival Rate (increased percentage of cell survival compared with the Group of 5-FU) (HaCaT cells; selected compound final concentration 1.6 μM): 25%-33%
- Cell Survival Rate (increased percentage of cell survival compared with the Group of 5-FU) (HaCaT cells; selected compound final concentration 3.13 μM): 42%-48%
- Cell Survival Rate (increased percentage of cell survival compared with the Group of 5-FU) (HaCaT cells; selected compound final concentration 6.25 μM): 64%-70%
- Cell Survival Rate (increased percentage of cell survival compared with the Group of 5-FU) (HaCaT cells; selected compound final concentration 12.5 μM): 95%-101%
- Cell Survival Rate (increased percentage of cell survival compared with the Group of 5-FU) (HaCaT cells; selected compound final concentration 25 μM): 84%-91%
- Cell Survival Rate (increased percentage of cell survival compared with the Group of 5-FU) (HaCaT cells; selected compound final concentration 50 μM): 85%-92%
- Cell Survival Rate (increased percentage of cell survival compared with the Group of 5-FU) (HaCaT cells; selected compound final concentration 100 μM): 39%-47%
- Control Rate Forepaws ([1]; gel 1 wt%): 25%
- Control Rate Hindpaws ([1]; gel 1 wt%): 37.50%
- Control Rate Forepaws ([1]; gel 5 wt%): 75.00%
- Control Rate Hindpaws ([1]; gel 5 wt%): 88%

Compound: Cc1cn([C@H]2C[C@H](O)[C@@H](CO)O2)c(=O)[nH]c1=O [thymidine]
- activation at 200 µM (HaCaT cells; [3]): 3 to 8%
- activation at 1000 µM (HaCaT cells; [3]): 15 to 23%
- activation at 1500 µM (HaCaT cells; Homo sapiens, HaCaT, increase vs Group of 5-FU, 5-FU 20 μM, compound 1500 μM, 48 h, read-out: Cell Survival Rate): 11 to 17%
- activation at 2000 µM (HaCaT cells; Homo sapiens, HaCaT, increase vs Group of 5-FU, 5-FU 20 μM, compound 2000 μM, 48 h, read-out: Cell Survival Rate): 1 to 6%
- activation at 3000 µM (HaCaT cells; Homo sapiens, HaCaT, increase vs Group of 5-FU, 5-FU 20 μM, compound 3000 μM, 48 h, read-out: Cell Survival Rate): -25 to 20%
